{
  "source": "patent US8426406B2",
  "about": "“Glucocorticoid receptor agonist comprising 2,2,4-trimethyl-6-phenyl-1,2-dihydroquinoline derivatives having substituted oxy group” (Santen Pharmaceutical Co., Ltd., priority 2008, dated 2013)",
  "key": {"[1]": {"system": "IL-6 production induced by lipopolysaccharide (LPS) in human corneal epithelial cells", "assay": "Evaluation test for GR agonist activity: inhibition of LPS-induced IL-6 production in human corneal epithelial cells (HCE-T)", "assay_type": "cell-based", "settings": "Corneal epithelial cell, 10 μL of 100 μM test compound solution per well, 4 hours incubation, efficacy relative to DEX", "procedure,_shortened": "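SV40-immortalized HCE-T cells were treated with test compound (100 μM solution, stock before dilution into well) plus LPS (1 μg/mL solution, likewise pre-dilution) for 4 hours in 10% FBS-DMEM/F12. IL-6 in supernatants was measured by HTRF. Inhibition was calculated relative to LPS-plus-DMSO and no-LPS controls, and efficacy was expressed as % of DEX inhibition.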"}, "[2]": {"system": "allergic conjunctivitis model in mice", "assay": "Inhibitory effect on the vascular hyper-permeability in allergic conjunctivitis model", "assay_type": "in vivo", "settings": "Mus musculus, 1% (W/V) test compound suspension instilled to the right eye three times before ovalbumin instillation, dye leakage vs vehicle, mean of 5-6 eyes, read-out: The inhibition ratio of the vascular hyper-permeability (%)", "protocol": "In order to evaluate anti-allergic effect, inhibitory effect on the vascular hyper-permeability in allergic conjunctivitis model in mice was examined. This effect was calculated based on dye leakages of vehicle-treated group (control group) and test compound-treated group.\nBy adding 0.5% polysorbate 80/saline to the test compound, a 1% (W/V) test compound suspension was prepared.\n1) Ovalbumin absorbed on aluminum hydroxide gel was dissolved in saline (20 μg ovalbumin/mL), and male BALE/c mice, 6 weeks old, were actively sensitized to the antigen by intraperitoneal injections of 500 μL of it.\n2) On the 6th day from sensitization, sensitized mice were boosted by additional intraperitoneal injections of 500 μL ovalbumin absorbed on aluminum hydroxide gel (20 μg ovalbumin/mL).\n3) On the 11th day, 12th day, 13th day, 14th day and 15th day from the first sensitization, allergic conjunctivitis were induced by installations to the right eyes of the mice of […] of 50% glycerol solution containing 15% (W/V) ovalbumin.\n4) […] of test compound suspension per eye was instilled to the right eye of the above mice 15 min, 1 hr and 3 hrs before ovalbumin instillation (three times) on the 15th day from sensitization. In vehicle-treated group (control group), the mice were instilled with 0.5% polysorbate 80/saline in substitution for test compound suspension.\n5) Just before ovalbumin instillation on the 15th day from sensitization, all animals received a tail intravenous injection of 0.1% Evans blue dye. The right periocular tissues of the mice, which were the leaked parts of dye, were collected 30 min after ovalbumin instillation. The dye was extracted from the tissues with the dye extraction liquid. Then the absorbance of the dye extract was measured. The dye leakage was calculated from the absorbance value, and the inhibition ratio of the vascular hyper-permeability of test compound-treated group was calculated according to calculation equation 1. The inhibition ratio of the vascular hyper-permeability of test compound-treated group(%)=(1−Ax/Ao)×100 (Calculation Equation 1) Ao: Dye leakage in vehicle-treated group (control group) Ax: Dye leakage in test compound-treated group (Test Results and Discussion)"}, "[3]": {"system": "choroidal neovascularization (CNV) model in rats", "assay": "Evaluation test for inhibitory effect of choroidal neovascularization (laser induced CNV model in rats)", "assay_type": "in vivo", "settings": "Brown Norway rats, 1% (w/v) suspension eye drops four times a day or 20 mg/mL subconjunctival injection (route not given), vs vehicle, mean of 7-8 eyes in 4 rats", "protocol": "The choroidal neovascularization (CNV) model in rats is known as one of the popular methods for evaluating the CNV inhibitory effect of drugs. This method is reported in Graefe's Arch. Cli. Exp. Ophthalmol., 235, 313-319 (1997). According to this method, the CNV examinations were performed to evaluate the CNV inhibitory effect of test compounds by comparing the incidence rates of CNV in vehicle group (control group) with test compound-treated groups.\nFor eye drop administration, a 1% (w/v) test compound suspension was prepared by adding 0.5% polysorbate 80/saline to the test compound. For subconjunctival injection, a 20 mg/mL test compound suspension was prepared by adding 0.5% hydrogenated castor oil/saline to the test compound.\n1) Brown Norway male rats (7-8 weeks, 140-240 g) were anesthetized with intramuscular injection (1 mL/kg) of the mixed solution (5% ketamine HCl: 2% xylazine HCl=7:1).\n2) After mydriasis using tropicamide phenylephrine hydrochloride eye drops (trade name Mydrin P), laser photocoagulation of bruch's membrane in rats was performed with krypton laser photocoagulation machine. Laser irradiation was performed at 8-9 points per eye avoiding thick retinal blood vessels in ocular fundus and focusing on the depth of retina. The conditions were 100 μm spot size, 100 mW power, 0.1 second duration.\n3) After laser photocoagulation, photographs of ocular fundus were taken and the laser photocoagulation (laser irradiation) points were confirmed.\n1) In case of eye drops administration, a test compound suspension was administrated four times a day from laser irradiation day (the 1st day) to the 8th day. In case of subconjunctival injection, a 50 μL test compound suspension was injected into conjunctivae just after laser irradiation.\n2) In vehicle group (control group), 0.5% polysorbate 80/saline or 0.5% hydrogenated castor oil/saline was used instead of a test compound suspension. And the test was performed according to the method 1).\n1) 7 days after laser irradiation, 0.1 mL of 10% fluorescein was injected into rat tail vein and fluorescein angiography was performed.\n2) When the fluorescent leakage was not detected in the fluorescent angiography, the spot was judged to be a negative spot. When the fluorescent leakage was detected, the spot was judged to be a positive spot. When the fluorescent leakage was detected as a little leakage, two spots were counted as one positive spot.\n3) The neovascular incidence rate was calculated according to the equation 1. According to the equation 2, the ratio of neovascular incidence rate in test compound group to vehicle group was calculated. Neovascular incidence rate(%)=(Positive spots/all spots)×100 (Equation 1) Angiogenic inhibition ratio in test compound group(%)=(1−Ax/Ao)×100 (Equation 2)\nAo: Neovascular incidence rate in vehicle group (control group)\nAx: Neovascular incidence rate in test compound group"}},
  "data": [
    {"smiles": "COc1cc(OC(=O)c2ccccc2Cl)ccc1-c1ccc2c(c1COC(=O)c1ccc(C)s1)C(C)=CC(C)(C)N2", "note": "[Compound 1-139, 6-[4-(2-Chlorobenzoyloxy)-2-methoxyphenyl]-5-(5-methylthiophen-2-ylcarbonyloxymethyl)-2,2,4-trimethyl-1,2-dihydroquinoline]", "values": [
      {"measurement": "Emax", "setting": "[1]", "value": 104, "unit": "%"},
      {"measurement": "inhibition in vivo at 10000 µg/mL", "setting": "[2]", "value": 15, "unit": "%"}
    ]},
    {"smiles": "COc1ccccc1NCc1c(-c2ccc(OC(=O)c3ccncc3)cc2OC)ccc2c1C(C)=CC(C)(C)N2", "note": "[Compound 1-102, 5-(2-Methoxyphenylaminomethyl)-6-[2-methoxy-4-(pyridin-4-ylcarbonyloxy)phenyl]-2,2,4-trimethyl-1,2-dihydroquinoline]", "values": [
      {"measurement": "Emax", "setting": "[1]", "value": 99, "unit": "%"},
      {"measurement": "inhibition in vivo at 10000 µg/mL", "setting": "[2]", "value": 16, "unit": "%"}
    ]},
    {"smiles": "COc1cc(OC(=O)c2cccnc2)ccc1-c1ccc2c(c1CNc1cc(F)ccc1C)C(C)=CC(C)(C)N2", "note": "[Compound 1-105, 5-(5-Fluoro-2-methylphenylaminomethyl)-6-[2-methoxy-4-(pyridin-3-ylcarbonyloxy)phenyl]-2,2,4-trimethyl-1,2-dihydroquinoline]", "values": [
      {"measurement": "Emax", "setting": "[1]", "value": 97, "unit": "%"},
      {"measurement": "inhibition in vivo at 10000 µg/mL", "setting": "[2]", "value": 18, "unit": "%"}
    ]},
    {"smiles": "CCC(=O)Oc1ccc(OC)c(-c2ccc3c(c2COc2cc(F)ccc2C)C(C)=CC(C)(C)N3)c1", "note": "[Compound 1-18, 5-(5-Fluoro-2-methylphenoxymethyl)-6-(2-methoxy-5-propionyloxyphenyl)-2,2,4-trimethyl-1,2-dihydroquinoline]", "values": [
      {"measurement": "Emax", "setting": "[1]", "value": 77, "unit": "%"},
      {"measurement": "inhibition in vivo at 10000 µg/mL", "setting": "[2]", "value": 30, "unit": "%"}
    ]},
    {"smiles": "COc1ccccc1C(=O)Oc1ccc(-c2ccc3c(c2COC(=O)c2ccc(C)s2)C(C)=CC(C)(C)N3)c(OC)c1", "note": "[Compound 1-136, 6-[2-Methoxy-4-(2-methoxybenzoyloxy)phenyl]-5-(5-methylthiophen-2-ylcarbonyloxymethyl)-2,2,4-trimethyl-1,2-dihydroquinoline]", "values": [
      {"measurement": "Emax", "setting": "[1]", "value": 89, "unit": "%"},
      {"measurement": "inhibition in vivo at 10000 µg/mL", "setting": "[2]", "value": 15, "unit": "%"}
    ]},
    {"smiles": "COc1cc(OC(=O)c2ccco2)ccc1-c1ccc2c(c1COC(=O)c1ccc(C)s1)C(C)=CC(C)(C)N2", "note": "[Compound 1-138, 6-[4-(Furan-2-ylcarbonyloxy)-2-methoxyphenyl]-5-(5-methylthiophen-2-ylcarbonyloxymethyl)-2,2,4-trimethyl-1,2-dihydroquinoline]", "values": [
      {"measurement": "Emax", "setting": "[1]", "value": 79, "unit": "%"},
      {"measurement": "inhibition in vivo at 10000 µg/mL", "setting": "[2]", "value": 16, "unit": "%"}
    ]},
    {"smiles": "COc1cc(OC(=O)c2ccccc2Cl)ccc1-c1ccc2c(c1COc1cc(F)ccc1C)C(C)=CC(C)(C)N2", "note": "[Compound 1-7, 6-[4-(2-Chlorobenzoyloxy)-2-methoxyphenyl]-5-(5-fluoro-2-methylphenoxymethyl)-2,2,4-trimethyl-1,2-dihydroquinoline]", "values": [
      {"measurement": "Emax", "setting": "[1]", "value": 78, "unit": "%"},
      {"measurement": "inhibition in vivo at 10000 µg/mL", "setting": "[2]", "value": 28, "unit": "%"}
    ]},
    {"smiles": "COc1ccccc1NCc1c(-c2ccc(OC(=O)c3cccnc3)cc2OC)ccc2c1C(C)=CC(C)(C)N2", "note": "[Compound 1-97, 5-(2-Methoxyphenylaminomethyl)-6-[2-methoxy-4-(pyridin-3-ylcarbonyloxy)phenyl]-2,2,4-trimethyl-1,2-dihydroquinoline]", "values": [
      {"measurement": "Emax", "setting": "[1]", "value": 81, "unit": "%"},
      {"measurement": "inhibition in vivo at 10000 µg/mL", "setting": "[2]", "value": 21, "unit": "%"}
    ]},
    {"smiles": "COc1cc(OC(=O)c2cccnc2)ccc1-c1ccc2c(c1COC(=O)c1ccc(C)s1)C(C)=CC(C)(C)N2", "note": "[Compound 1-137, 6-[2-Methoxy-4-(pyridin-3-ylcarbonyloxy)phenyl]-5-(5-methylthiophen-2-ylcarbonyloxymethyl)-2,2,4-trimethyl-1,2-dihydroquinoline]", "values": [
      {"measurement": "Emax", "setting": "[1]", "value": 83, "unit": "%"},
      {"measurement": "inhibition in vivo at 10000 µg/mL", "setting": "[2]", "value": 26, "unit": "%"}
    ]},
    {"smiles": "COc1cc(OC(=O)c2ccoc2)ccc1-c1ccc2c(c1COc1cc(F)ccc1C)C(C)=CC(C)(C)N2", "note": "[Compound 1-25, 5-(5-Fluoro-2-methylphenoxymethyl)-6-[4-(furan-3-ylcarbonyloxy)-2-methoxyphenyl]-2,2,4-trimethyl-1,2-dihydroquinoline]", "values": [
      {"measurement": "Emax", "setting": "[1]", "value": 83, "unit": "%"},
      {"measurement": "Angiogenic inhibition ratio (%)", "setting": "[3]", "value": 50, "unit": "%"}
    ]}
  ]
}
